Laboratory results as given in PubChem BioAssay AID1963959 (Molecular Pharmacology Branch, DTP, NCI, 2024).
pIC50: −log10 of the molar value.

Tested on: T-47D spheroids with HUVEC/MSC, viability
Assay: Anticancer human tumor T-47D cell line growth inhibition [PI3K];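 further: spheroids exposed to agents for seven days before reading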;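 on viability, T/C: percent of DMSO vehicle control luminescence so 100% = untreated growth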
Conditions: for pIC50: curve of first compound; for viability, T/C: stronger effect = lower value
In short: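 Tumor cells grown as multi-cell spheroids with HUVEC endothelial cells and MSC fibroblast-like stroma were treated with targeted agents combined with inavolisib, alpelisib, duvelisib or copanlisib. Doses fell in half-log steps from near clinical Cmax, else from 10 microM. Viability was measured.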

[1] = second compound 0.0316 µM, first compound 0.0316 µM
[2] = second compound 0.0316 µM, first compound 0.1 µM
[3] = second compound 0.0316 µM, first compound 0.316 µM
[4] = second compound 0.0316 µM, first compound 1 µM
[5] = second compound 0.0316 µM, first compound 3.16 µM
[6] = second compound 0.0316 µM, first compound 10 µM
[7] = second compound 0.1 µM, first compound 0.0316 µM
[8] = second compound 0.1 µM, first compound 0.1 µM
[9] = second compound 0.1 µM, first compound 0.316 µM
[10] = second compound 0.1 µM, first compound 1 µM
[11] = second compound 0.1 µM, first compound 3.16 µM
[12] = second compound 0.1 µM, first compound 10 µM
[13] = second compound 0.316 µM, first compound 0.0316 µM
[14] = second compound 0.316 µM, first compound 0.1 µM
[15] = second compound 0.316 µM, first compound 0.316 µM
[16] = second compound 0.316 µM, first compound 1 µM
[17] = second compound 0.316 µM, first compound 3.16 µM
[18] = second compound 0.316 µM, first compound 10 µM
[19] = second compound 1 µM, first compound 0.0316 µM
[20] = second compound 1 µM, first compound 0.1 µM
[21] = second compound 1 µM, first compound 0.316 µM
[22] = second compound 1 µM, first compound 1 µM
[23] = second compound 1 µM, first compound 3.16 µM
[24] = second compound 1 µM, first compound 10 µM
[25] = second compound 3.16 µM, first compound 0.0316 µM
[26] = second compound 3.16 µM, first compound 0.1 µM
[27] = second compound 3.16 µM, first compound 0.316 µM
[28] = second compound 3.16 µM, first compound 1 µM
[29] = second compound 3.16 µM, first compound 3.16 µM
[30] = second compound 3.16 µM, first compound 10 µM
[31] = second compound 10 µM, first compound 0.0316 µM
[32] = second compound 10 µM, first compound 0.1 µM
[33] = second compound 10 µM, first compound 0.316 µM
[34] = second compound 10 µM, first compound 1 µM
[35] = second compound 10 µM, first compound 3.16 µM
[36] = second compound 10 µM, first compound 10 µM

CC1(C)CCC(CN2CCN(c3ccc(C(=O)NS(=O)(=O)c4ccc(NCC5CCOCC5)c([N+](=O)[O-])c4)c(Oc4cnc5[nH]ccc5c4)c3)CC2)=C(c2ccc(Cl)cc2)C1 + CC(Nc1ncnc2nc[nH]c12)c1cc2cccc(Cl)c2c(=O)n1-c1ccccc1
pIC50 (second compound 0.0316 µM): < 5.00 | pIC50 (second compound 0.1 µM): < 5.00 | pIC50 (second compound 0.316 µM): < 5.00 | pIC50 (second compound 1 µM): < 5.00 | pIC50 (second compound 3.16 µM): < 5.00 | pIC50 (second compound 10 µM): < 5.00 | viability, T/C [1]: 120% | viability, T/C [2]: 75.2% | viability, T/C [3]: 85.7% | viability, T/C [4]: 80.9% | viability, T/C [5]: 81% | viability, T/C [6]: 79.5% | viability, T/C [7]: 110% | viability, T/C [8]: 96% | viability, T/C [9]: 99.5% | viability, T/C [10]: 83.7% | viability, T/C [11]: 89.6% | viability, T/C [12]: 83.6% | viability, T/C [13]: 88.5% | viability, T/C [14]: 101% | viability, T/C [15]: 86% | viability, T/C [16]: 89.7% | viability, T/C [17]: 85.3% | viability, T/C [18]: 81% | viability, T/C [19]: 96.9% | viability, T/C [20]: 93.4% | viability, T/C [21]: 91% | viability, T/C [22]: 80.3% | viability, T/C [23]: 77.1% | viability, T/C [24]: 79.2% | viability, T/C [25]: 91.6% | viability, T/C [26]: 88.9% | viability, T/C [27]: 97.3% | viability, T/C [28]: 95.5% | viability, T/C [29]: 87.3% | viability, T/C [30]: 66.8% | viability, T/C [31]: 96.5% | viability, T/C [32]: 94.4% | viability, T/C [33]: 88.8% | viability, T/C [34]: 89% | viability, T/C [35]: 86.1% | viability, T/C [36]: 79.8%

C[C@@H](NC(=O)c1ncnc(N)c1Cl)c1ncc(C(=O)Nc2cc(C(F)(F)F)c(Cl)cn2)s1 + CC(Nc1ncnc2nc[nH]c12)c1cc2cccc(Cl)c2c(=O)n1-c1ccccc1
pIC50 (second compound 0.0316 µM): < 5.00 | pIC50 (second compound 0.1 µM): < 5.00 | pIC50 (second compound 0.316 µM): < 5.00 | pIC50 (second compound 1 µM): < 5.00 | pIC50 (second compound 3.16 µM): < 5.00 | pIC50 (second compound 10 µM): < 5.00 | viability, T/C [1]: 75.3% | viability, T/C [2]: 88.3% | viability, T/C [3]: 83.8% | viability, T/C [4]: 89.1% | viability, T/C [5]: 108% | viability, T/C [6]: 92.5% | viability, T/C [7]: 106% | viability, T/C [8]: 90.2% | viability, T/C [9]: 86% | viability, T/C [10]: 84.3% | viability, T/C [11]: 89.9% | viability, T/C [12]: 90.9% | viability, T/C [13]: 94.8% | viability, T/C [14]: 93.2% | viability, T/C [15]: 90.3% | viability, T/C [16]: 84% | viability, T/C [17]: 84.7% | viability, T/C [18]: 100% | viability, T/C [19]: 80.2% | viability, T/C [20]: 105% | viability, T/C [21]: 80.9% | viability, T/C [22]: 89.2% | viability, T/C [23]: 85.8% | viability, T/C [24]: 90% | viability, T/C [25]: 72.2% | viability, T/C [26]: 91.2% | viability, T/C [27]: 97.4% | viability, T/C [28]: 98.8% | viability, T/C [29]: 82% | viability, T/C [30]: 80.7% | viability, T/C [31]: 105% | viability, T/C [32]: 82.1% | viability, T/C [33]: 103% | viability, T/C [34]: 84.1% | viability, T/C [35]: 86.3% | viability, T/C [36]: 88.8%

Cn1ncnc1[C@H]1c2n[nH]c(=O)c3cc(F)cc(c23)N[C@@H]1c1ccc(F)cc1 + CC(Nc1ncnc2nc[nH]c12)c1cc2cccc(Cl)c2c(=O)n1-c1ccccc1
pIC50 (second compound 0.0316 µM): < 7.00 | pIC50 (second compound 0.1 µM): < 7.00 | pIC50 (second compound 0.316 µM): < 7.00 | pIC50 (second compound 1 µM): < 7.00 | pIC50 (second compound 3.16 µM): < 7.00 | pIC50 (second compound 10 µM): < 7.00 | viability, T/C (second compound 0.0316 µM, first compound 0.000316 µM): 86.8% | viability, T/C (second compound 0.0316 µM, first compound 0.001 µM): 92.8% | viability, T/C (second compound 0.0316 µM, first compound 0.00316 µM): 79.7% | viability, T/C (second compound 0.0316 µM, first compound 0.01 µM): 94.8% | viability, T/C [1]: 99.6% | viability, T/C [2]: 80.8% | viability, T/C (second compound 0.1 µM, first compound 0.000316 µM): 110% | viability, T/C (second compound 0.1 µM, first compound 0.001 µM): 82.2% | viability, T/C (second compound 0.1 µM, first compound 0.00316 µM): 99.3% | viability, T/C (second compound 0.1 µM, first compound 0.01 µM): 91.5% | viability, T/C [7]: 89.5% | viability, T/C [8]: 93.3% | viability, T/C (second compound 0.316 µM, first compound 0.000316 µM): 98.1% | viability, T/C (second compound 0.316 µM, first compound 0.001 µM): 82.9% | viability, T/C (second compound 0.316 µM, first compound 0.00316 µM): 90.6% | viability, T/C (second compound 0.316 µM, first compound 0.01 µM): 100% | viability, T/C [13]: 85.6% | viability, T/C [14]: 92.1% | viability, T/C (second compound 1 µM, first compound 0.000316 µM): 98.3% | viability, T/C (second compound 1 µM, first compound 0.001 µM): 89.6% | viability, T/C (second compound 1 µM, first compound 0.00316 µM): 102% | viability, T/C (second compound 1 µM, first compound 0.01 µM): 74.5% | viability, T/C [19]: 86.5% | viability, T/C [20]: 92.6% | viability, T/C (second compound 3.16 µM, first compound 0.000316 µM): 86.3% | viability, T/C (second compound 3.16 µM, first compound 0.001 µM): 90.2% | viability, T/C (second compound 3.16 µM, first compound 0.00316 µM): 88.6% | viability, T/C (second compound 3.16 µM, first compound 0.01 µM): 83.2% | viability, T/C [25]: 103% | viability, T/C [26]: 96.3% | viability, T/C (second compound 10 µM, first compound 0.000316 µM): 80.7% | viability, T/C (second compound 10 µM, first compound 0.001 µM): 81.7% | viability, T/C (second compound 10 µM, first compound 0.00316 µM): 83.4% | viability, T/C (second compound 10 µM, first compound 0.01 µM): 92.3% | viability, T/C [31]: 102% | viability, T/C [32]: 83.7%
